For one experiment, the system named is GD3 antibody 4F6. Description: ELISA of immobilized MAP-form GD3-mimetic peptides with anti-GD3 antibody (Example 3(3)). In kind it is binding, mouse. Conditions: for ELISA absorbance, Anti-GD3 antibody: MAP form 100 ng/well. How it is done:
A 0.1M NaHCO3 solution containing each of the phage clones obtained in Example 1 (10^11, 10^10, or 10^9 titer/100 μL) was added to the wells of a 96-well microtiter plate (product of Nunc), for immobilization of the phage clones at room temperature for one hour. The supernatant was removed, then the wells were subjected to blocking by use of a blocking solution ([…]; TBS containing 1% BSA, 0.1% skim milk, and 0.02% Tween 20; pH 7.5) at 37° C. for four hours.
The supernatant was removed, then GD3 antibody 4F6 (100 μL), serving as a primary antibody, was added to each well for reaction under shaking at room temperature for two hours. After completion of reaction, the supernatant was removed, then the wells were washed six times with a washing solution (400 μL for each well, TBS containing 0.05% Tween 20). Subsequently, a secondary antibody (anti-mouse IgG-HRP, product of Santa Cruz Biotechnology, catalogue No. SC-2031, Lot. No. C089) which was diluted 5,000-fold by use of a blocking solution prepared in advance was added to the wells (100 μL to each well) for reaction under shaking at room temperature for one hour. After completion of reaction, the wells were washed four times with a washing solution (400 μL for each well), then a detection reagent (TMB Microwell; product of KPL, Catalogue No. 50-76-04, Lot. No. WF075) was added to the wells (100 μL to each well), and the mixture was allowed to stand for five minutes at room temperature.
1N-Hydrochloric acid (100 μL) was added to each well for stopping the reaction. Absorbance of each well was measured at 450 nm and 620 nm, and “OD450-OD620” was calculated. A Multiscan (product of Labosystems) was used in measurement of absorbance. A well in which phages had not been immobilized served as a blank, and the absorbance of each well was determined by subtracting the blank value from the “as-measured” value.
A 0.1M NaHCO3 solution containing a GD3-mimetic peptide of the invention in the above MAP form (100 ng/100 μL) was added to the wells of a 96-well micro-titer plate, for immobilization at room temperature for one hour. Subsequently, in a manner similar to the ELISA method employed in Example 2, binding affinity of the GD3-mimetic peptide to GD3 antibody 4F6 was investigated.
Anti-GD2 antibody and anti-OAcGD3 antibody (Cerato, E., et al., Hybridoma, 16(4), 307-316 (1997)) were used as controls (these antibodies were kindly provided by from Dr. Portoukalian).
In general terms: ELISA stands for enzyme-linked immunosorbent assay.

Experiment [1] relates to binding between GD3 and 4F6. The experiment is described as follows: Inhibition by exogenously added MAPs of binding between GD3 and 4F6 (Example 5(4), FIG. 5). Set-up: species or system mouse. To be noted: for inhibitory effect of exogenously added sample on binding between GD3 and 4F6 (words, FIG. 5): added simultaneously with 4F6 to GD3 100 ng/well; for order of binding strength to 4F6: deduced from FIG. 5. How it is done:
(4) Next, investigation was made as to whether binding between GD3R3 or GD3R4 and 4F6 occurred at the GD3 binding site of 4F6. To the wells of a plate to which GD3 had been immobilized (100 ng/well), each of the MAP samples having a variety of concentrations shown on the X-axis in FIG. 5 and 4F6 (100 μL/well) were simultaneously added, whereby an inhibitory test was performed. The test was performed in triplicate, and the values in the graph are “mean ±SD.”

For the next experiment, the system named is anti-GD3 antibody 4F6. The experiment is described as follows: ELISA of MAPs immobilized at various amounts with 4F6 (Example 5(2), FIG. 3). To be noted: MAPs or GD3 immobilized at various amounts. Type of experiment: binding, mouse. The text has this:
(1) In a manner similar to that described in Example 3, peptides of N-terminus 9 amino acid residues or C-terminus 9 amino acid residues of GD3R1, GD3R2, GD3R3, or GD3R4. The nomenclature and sequences of respective peptides employed in the present test are shown in FIG. 2 These were employed as multi-antigen peptides (MAPs). (2) In order to extend the research on bonding between the anti-GD3 antibody 4F6 and each of the GD3-mimetic peptides shown in FIG. 1, multi-antigen peptides (MAPs) were subjected to ELISA. MAP samples having a variety of concentrations shown on the X-axis in FIG. 3 were provided, and each sample was immobilized onto the wells of a 96-well plate. Subsequently, the wells were blocked with a blocking solution (TBS supplemented with 1% BSA, 0.1% skim milk, and 0.02% Tween 20) at 4° C. overnight. 4F6 (hybridoma supernatant: used in the neat form) was added (100 μL/well) for reaction at room temperature for 2 hours. After completion of reaction, the supernatant was discarded, and the wells were washed with a washing solution (TBS supplemented with 1% FBS and 0.05% Tween 20) six times. Subsequently, the wells were allowed to react with peroxidase-labeled anti-mouse IgG (diluted 1,000-fold with a blocking solution) at room temperature for 2 hours. The wells were again washed with a washing solution four times, and the amount of peroxidase enzyme remaining in each well was detected and quantitatively determined with the substrate TMB, whereby binding of MAP to 4F6 was investigated. The test was performed in triplicate, and the values in the graph are “mean ±SD.”

Experiment [2] has as its system binding between GD3 and 4F6 (anti-GD3 antibody). Description: Inhibition by immobilized MAPs of binding between GD3 and 4F6 (Example 5(3), FIG. 4). The arrangement: species or system mouse. Conditions: immobilized MAP or GD3 absorbs 4F6. How it is done:
(3) The binding affinity shown in FIG. 3 was investigated in another method. Briefly, MAP samples having a variety of concentrations shown on the X-axis in FIG. 4 were provided. Each sample was immobilized onto the wells of a 96-well plate, and the wells were allowed to react with 4F6 (100 μL/well) at 4° C. overnight. On the following day, the supernatant (80 μL) was collected and added to the wells of another plate to which GD3 had been immobilized in advance (100 ng/well) for reaction at room temperature for 2 hours. After completion of reaction, the amount of antibody 4F6 that had been condensed with GD3 (i.e., that had not been absorbed by MAP) was detected and quantitatively determined through the method described (2) above, whereby inhibitory effect of MAP on binding of GD3 to 4F6 was investigated. The test was performed in triplicate, and the values in the graph are “mean ±SD.”

The source of these data is patent US8017584B2, “GD3-mimetic peptides” (Otsuka Pharmaceutical Co., Ltd., priority 2000, dated 2011).

As for “GLAPPDYAERFELLS [GD3R3, tested as phage clone, MAP form or peptide]”, the “binding to the anti-GD3 antibody” value with GD3 antibody 4F6 is on record as “stronger bonding to the anti-GD3 antibody”. In addition, the “ELISA absorbance, Anti-GD3 antibody” value in the experiment on GD3 antibody 4F6 (Serum % 12.50%) was 0.176; with GD3 antibody 4F6 (Serum % 25%), 0.237; in the experiment on GD3 antibody 4F6 (Serum % 50%), 0.357; with GD3 antibody 4F6 (Serum % 100%), 0.483. Also, in experiment [1], the “inhibitory effect of exogenously added sample on binding between GD3 and 4F6 (words, FIG. 5)” value is recorded as “exhibited inhibitory effect”. In experiment [1], the “order of binding strength to 4F6” value is “GD3>GD3R3>GD3R4”. In addition, the “binding to anti-GD3 antibody 4F6, overall conclusion” value in experiment [1] (taken together, Example 5) is “the strongest in binding”. Besides, in the experiment on anti-GD3 antibody 4F6, the “binding of 4F6 to immobilized sample (words, FIG. 3)” value was “in an amount-dependent manner”. Further, in experiment [2], the “inhibition of GD3 binding to 4F6 by immobilized sample (words, FIG. 4)” value is recorded as “inhibit GD3 from binding to the antibody”.

Turning to “RHAYRSMAEWGFLYS (RHAYRSMAQWGFLYS) [GD3R4, tested as phage clone, MAP form or peptide]”, in the experiment on GD3 antibody 4F6, the “binding to the anti-GD3 antibody” value is on record as “stronger bonding to the anti-GD3 antibody”. Also, the “ELISA absorbance, Anti-GD3 antibody” value with GD3 antibody 4F6 (Serum % 12.50%) turned out to be 0.144; with GD3 antibody 4F6 (Serum % 25%) it was 0.229; with GD3 antibody 4F6 (Serum % 50%) it was 0.309; in the experiment on GD3 antibody 4F6 (Serum % 100%), 0.381. In addition, the “inhibitory effect of exogenously added sample on binding between GD3 and 4F6 (words, FIG. 5)” value in experiment [1] is listed as “did not”. Moreover, the “order of binding strength to 4F6” value in experiment [1] is listed as “GD3>GD3R3>GD3R4”. Moreover, in the experiment on anti-GD3 antibody 4F6, the “binding of 4F6 to immobilized sample (words, FIG. 3)” value is “in an amount-dependent manner”. The “inhibition of GD3 binding to 4F6 by immobilized sample (words, FIG. 4)” value in experiment [2] is “inhibit GD3 from binding to the antibody”.

Turning to “LAPPRPRSELVFLSV (LAPPRPRSQLVFLSV) [GD3R1, tested as phage clone, MAP form or peptide]”, the “ELISA absorbance, Anti-GD3 antibody” value is 0.083 in the experiment with GD3 antibody 4F6 (Serum % 12.50%), 0.127 in the experiment on GD3 antibody 4F6 (Serum % 25%), 0.137 in the experiment on GD3 antibody 4F6 (Serum % 50%) and 0.263 in the experiment with GD3 antibody 4F6 (Serum % 100%).

For “PHFDSLLYPCELLGC (PHFDSLLYPCQLLGC) [GD3R2, tested as phage clone, MAP form or peptide]”, the “ELISA absorbance, Anti-GD3 antibody” value is listed as 0.055 in the experiment on GD3 antibody 4F6 (Serum % 12.50%), 0.105 in the experiment on GD3 antibody 4F6 (Serum % 25%), 0.159 in the experiment with GD3 antibody 4F6 (Serum % 50%) and 0.264 in the experiment on GD3 antibody 4F6 (Serum % 100%).
